Test results published in patent US10030064B2, “Mammalian cell culture processes for protein production” (priority 2009, dated 2018).

Experiments:
Type in all cases: cell-based, Chinese hamster
CHO cells [1] = experiment: Shake flask CHO culture in serum free medium: viable cell density, viability, growth rate, productivity (Example 3)
Method: The CHO cell line used in this study was subcloned from DG44 parental cells and cultured in a proprietary chemically-defined growth medium.
The experiments were carried out in 250-mL shake flasks (VWR international) with starting volumes of 100 mL and initial cell densities of 6×10^5 cells/mL. The cultures were placed on a shaker platform (VWR international) at 150 rpm and maintained at 37° C. and 6% CO2 for ten days. The cultures were sampled daily and the pH adjustment using 1M sodium carbonate, and fed with glucose and glutamine every two days in order to maintain them at certain levels. Cell density and viability were measured off-line a Bioprofile Analyzer 400 (Nova Biomedical Corporation, Waltham, Mass.).
The eluted protein was quantified using a 10-level standard curve.

[2] = tested on: CHO cells secreting an IgG-fusion protein; experiment: Shake flask CHO culture: SEC-HPLC of high molecular weight (HMW) species in secreted IgG-fusion protein
Method: The CHO cell line used in this study was originally subcloned from DG44 parental cells and cultured in a protein-free proprietary growth medium. The host cells were genetically engineered to secrete an IgG-fusion protein under the control of CMV promoter.
The experiments were carried out in 250-mL shake flasks (VWR international) with starting volumes of 100 mL and initial cell densities of 6×10^5 cells/mL. Shake flasks were placed on a shaker platform (VWR international) at 150 rpm rotating speed. Cells were cultured under standard humidified condition at 37° C. and 6% CO2, for a ten-day duration with daily pH adjustment using 1M sodium carbonate, and fed with glucose and glutamine every two days in order to maintain them at certain level. Cell density, cell viability and substrates/metabolites were offline-analyzed by an automated cell counting system Cedex (Innovatis AG, Bielefeld, Germany) and a Bioprofile Analyzer 400 (Nova Biomedical Corporation, Waltham, Mass.). Supernatant from each culture harvest was collected for SEC analysis.
The main components of HMW species were dimers and trimers formed covalently or non-covalently and categorically considered to be protein aggregates.

[3] = tested on: CHO cell line with CTLA4Ig secretion; experiment: Shake flask culture of CHO cell line secreting CTLA4Ig: VCD and viability (Example 4)
Method: The CHO cell line used in this study was originally subcloned from DG44 parental cells and cultured in a proprietary chemical-defined growth medium.
The experiments were carried out in 250-mL shake flasks (VWR international) with starting volumes of 100 mL and initial cell densities of 6×10^5 cells/mL. The cultures were placed on a shaker platform (VWR international) at 150 rpm and maintained at 37° C. and 6% CO2 for ten days. The cultures were sampled daily and the pH was adjusted as needed using 1M sodium carbonate and fed with glucose and glutamine every two days in order to maintain them at adequate levels. […] Cell density and viability were measured offline using a Cedex automated cell counter (Innovatis AG, Bielefeld, Germany). Culture pH and concentrations for glucose and glutamine were measured off-line using a Bioprofile Analyzer 400 (Nova Biomedical Corporation, Waltham, Mass.). Supernatants from culture harvests were collected for analysis of sialic acid content and HMW level.
Cell viability for the untreated cultures decreased rapidly after Day 6 (FIG. 16B) and percent viability on day 10 was only 64.5%.

CHO cells [4] = experiment: Shake flask CHO culture: cell viability profile (Example 1); conditions: 1 μM DEX from day 2
Method: The experiments were carried out in 250-mL shake flasks (VWR international) with starting volumes of 100 mL and initial cell densities of 6×10^5 cells/mL. The cultures were placed on a shaker platform (VWR international) at 150 rpm and maintained at 37° C. and 6% CO2 for ten days. The cultures were sampled daily and the pH was adjusted as needed using 1M sodium carbonate and fed with glucose and glutamine every two days in order to maintain them at adequate levels. Cell density and viability were measured offline using a Cedex automated cell counter (Innovatis AG, Bielefeld, Germany). Culture pH and concentrations for glucose and glutamine were measured off-line using a Bioprofile Analyzer 400 (Nova Biomedical Corporation, Waltham, Mass.).

[5] = 10 μM DEX added two days after inoculation
[6] = treatment concentration 0.1 μM, added two days after inoculation
[7] = treatment concentration 1 μM, added two days after inoculation
[8] = treatment concentration 10 μM, added two days after inoculation

C[C@@H]1C[C@H]2[C@@H]3CCC4=CC(=O)C=C[C@]4(C)[C@@]3(F)[C@@H](O)C[C@]2(C)[C@@]1(O)C(=O)CO [DEX, dexamethasone]
final cell viability (day 10) (CHO cells [1]; 0.01 μM DEX added two days after inoculation): 53.1%
percent increase of cell viability induced by DEX (CHO cells [1]; 0.1 μM DEX, with 1 μM RU-486): 4.7%
percent increase of cell viability induced by DEX (CHO cells [1]; 0.1 μM DEX, without RU-486): 30.5%
maximum specific productivity (normalized) (CHO cells [1]; 1 μM DEX added day 2): 7.0±0.6 ×10^−9
normalized volumetric productivity (CHO cells [1]; 1 μM DEX added day 2, same for all cultures): 6.5
reduction in cell growth rates compared to control (CHO cells [1]; 1 μM DEX added day 2, the day after DEX addition): ~30%
viability on day 10 (CHO cells [1]; 1 μM DEX added on day 0): 63%
viability on day 10 (CHO cells [1]; 1 μM DEX added on day 2): 68%
viability on day 10 (CHO cells [1]; 1 μM DEX added on day 4): 72%
viability on day 10 (CHO cells [1]; 1 μM DEX added on day 6): 74%
percent increase of cell viability induced by DEX (CHO cells [1]; 1 μM DEX, with 1 μM RU-486): 5.7%
percent increase of cell viability induced by DEX (CHO cells [1]; 1 μM DEX, without RU-486): 32.6%
Peak VCD (CHO cells [1]; [5]): 6.5 ×10^6 cell/mL
final cell viability (day 10) (CHO cells [1]; [5]): 64.0%
Final VCD (CHO cells [1]; [6]): 7.64 ×10^6 cells/mL
Peak VCD (CHO cells [1]; [6]): 7.99 ×10^6 cells/mL
Viability (final, day 10) (CHO cells [1]; [6]): 72.3%
Final VCD (CHO cells [1]; [7]): 8.40 ×10^6 cells/mL
Peak VCD (CHO cells [1]; [7]): 9.02 ×10^6 cells/mL
Viability (final, day 10) (CHO cells [1]; [7]): 75.8%
Final VCD (CHO cells [1]; [8]): 7.38 ×10^6 cells/mL
Peak VCD (CHO cells [1]; [8]): 7.49 ×10^6 cells/mL
Viability (final, day 10) (CHO cells [1]; [8]): 82.3%
decrease of percentage of HMW species ([2]; 0.1 μM DEX alone): approximately 17%
reduction of protein aggregation (percentage of HMW species) ([2]; 1 μM DEX added day 2, supernatant day 10, vs control): 15%
final cell viability (day 10) ([3]; 0.001 μM DEX added day 2): 75.5%
final cell viability (day 10) ([3]; 10 μM DEX added day 2): 82.3%
Cell viability (CHO cells [4]; day 4): 98.0±0.1%
Cell viability (CHO cells [4]; day 10): 85.0±2.7%
